Reference: US20250114345A1, “COMPOUNDS AND COMPOSITIONS AS CBP/P300 DEGRADERS AND USES THEREOF” (Oncopia Therapeutics, Inc. d/b/a/ SK Life Science Labs, priority 2023, published 2025)

What was measured:
p300 = target: T1, p300 (Homo sapiens, UniProt Q09472); assay: P300 degradation, HiBit technology in A549 P300 HiBit cells (2 h); assay type: cell-based; conditions: 2 hrs post treatment; for Dmax: A549, A549 P300 HiBit cells; for DC50: A549 P300 HiBit cells
T1 construct: host or cells: A549 P300 HiBit cells
In short: (§1)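 Luminescence after lytic HiBiT detection (10 min, room temperature) gave degradation potency and Dmax. Before that, knock-in A549 cells grown overnight in F-12K/10% HI-FBS were exposed to serially diluted compound at 37 °C, 5% CO2 for the assay time stated.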

CBP = target: T2, CBP (Homo sapiens, UniProt Q92793); assay: CBP degradation, HiBit technology in A549 CBP HiBit cells (24 h); assay type: cell-based; conditions: 24 hrs post treatment
T2 construct: host or cells: A549 CBP HiBit cells
In short: as §1

T2 sequence (Q92793 whole entry): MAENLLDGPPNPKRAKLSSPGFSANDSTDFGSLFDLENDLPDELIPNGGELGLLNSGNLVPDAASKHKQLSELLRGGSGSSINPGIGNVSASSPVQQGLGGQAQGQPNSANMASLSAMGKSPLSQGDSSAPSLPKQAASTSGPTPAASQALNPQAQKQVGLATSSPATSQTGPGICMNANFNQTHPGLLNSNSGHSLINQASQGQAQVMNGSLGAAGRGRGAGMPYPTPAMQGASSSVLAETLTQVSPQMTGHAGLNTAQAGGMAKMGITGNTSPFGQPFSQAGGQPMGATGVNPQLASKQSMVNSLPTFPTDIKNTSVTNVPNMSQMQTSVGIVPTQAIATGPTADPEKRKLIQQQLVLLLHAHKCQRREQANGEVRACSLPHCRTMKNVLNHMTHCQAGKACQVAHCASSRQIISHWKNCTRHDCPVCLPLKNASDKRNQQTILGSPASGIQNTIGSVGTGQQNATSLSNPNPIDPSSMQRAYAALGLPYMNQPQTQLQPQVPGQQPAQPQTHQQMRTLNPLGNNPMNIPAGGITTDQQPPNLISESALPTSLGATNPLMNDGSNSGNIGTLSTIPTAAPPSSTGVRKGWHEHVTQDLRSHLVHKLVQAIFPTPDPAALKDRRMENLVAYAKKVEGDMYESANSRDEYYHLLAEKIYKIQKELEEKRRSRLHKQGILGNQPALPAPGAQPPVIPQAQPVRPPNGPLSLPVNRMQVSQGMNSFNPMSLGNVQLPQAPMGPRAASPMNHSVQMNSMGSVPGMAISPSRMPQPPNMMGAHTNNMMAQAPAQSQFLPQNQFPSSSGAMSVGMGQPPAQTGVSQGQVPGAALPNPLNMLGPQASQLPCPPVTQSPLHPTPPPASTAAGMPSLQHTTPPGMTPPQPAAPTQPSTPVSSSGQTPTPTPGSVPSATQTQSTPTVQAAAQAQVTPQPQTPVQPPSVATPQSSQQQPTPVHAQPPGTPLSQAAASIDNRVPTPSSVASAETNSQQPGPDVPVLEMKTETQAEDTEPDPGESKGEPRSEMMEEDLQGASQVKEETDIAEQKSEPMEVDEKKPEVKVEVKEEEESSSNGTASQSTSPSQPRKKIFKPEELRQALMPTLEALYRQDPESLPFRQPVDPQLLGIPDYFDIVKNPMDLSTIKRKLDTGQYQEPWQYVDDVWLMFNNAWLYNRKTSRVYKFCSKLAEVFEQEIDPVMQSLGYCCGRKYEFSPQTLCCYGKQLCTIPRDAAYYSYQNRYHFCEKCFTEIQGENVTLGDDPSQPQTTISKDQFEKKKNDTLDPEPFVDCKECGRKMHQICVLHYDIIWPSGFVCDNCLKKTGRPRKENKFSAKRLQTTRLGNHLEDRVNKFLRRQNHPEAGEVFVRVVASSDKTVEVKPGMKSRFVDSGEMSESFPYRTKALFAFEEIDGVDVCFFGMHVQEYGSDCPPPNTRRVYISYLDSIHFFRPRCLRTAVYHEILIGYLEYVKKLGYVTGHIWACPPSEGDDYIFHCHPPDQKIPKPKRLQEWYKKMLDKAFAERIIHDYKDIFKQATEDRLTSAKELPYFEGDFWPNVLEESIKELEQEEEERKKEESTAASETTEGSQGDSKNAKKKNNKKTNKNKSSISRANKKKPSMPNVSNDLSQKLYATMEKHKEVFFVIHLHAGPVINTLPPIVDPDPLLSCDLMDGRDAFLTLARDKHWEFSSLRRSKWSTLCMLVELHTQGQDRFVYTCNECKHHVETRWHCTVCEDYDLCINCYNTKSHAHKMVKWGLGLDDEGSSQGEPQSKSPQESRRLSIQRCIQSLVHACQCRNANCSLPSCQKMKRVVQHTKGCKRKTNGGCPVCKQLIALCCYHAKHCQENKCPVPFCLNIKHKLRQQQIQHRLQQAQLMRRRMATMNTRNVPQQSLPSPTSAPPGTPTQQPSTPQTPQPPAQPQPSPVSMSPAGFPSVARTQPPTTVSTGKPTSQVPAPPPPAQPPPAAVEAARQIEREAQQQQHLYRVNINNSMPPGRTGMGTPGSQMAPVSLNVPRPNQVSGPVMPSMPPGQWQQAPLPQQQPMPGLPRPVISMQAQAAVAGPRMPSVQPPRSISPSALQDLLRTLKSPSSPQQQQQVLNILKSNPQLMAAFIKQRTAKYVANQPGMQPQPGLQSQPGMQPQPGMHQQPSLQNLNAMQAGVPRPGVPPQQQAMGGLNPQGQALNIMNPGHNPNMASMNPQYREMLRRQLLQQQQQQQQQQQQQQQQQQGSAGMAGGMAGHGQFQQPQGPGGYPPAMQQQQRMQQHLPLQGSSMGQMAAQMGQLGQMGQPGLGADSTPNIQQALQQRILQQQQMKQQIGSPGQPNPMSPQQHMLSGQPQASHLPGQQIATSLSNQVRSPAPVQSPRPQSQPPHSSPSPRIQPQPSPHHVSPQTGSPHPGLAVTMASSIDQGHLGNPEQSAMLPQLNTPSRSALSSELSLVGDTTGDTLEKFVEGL
T1 sequence (Q09472 whole entry): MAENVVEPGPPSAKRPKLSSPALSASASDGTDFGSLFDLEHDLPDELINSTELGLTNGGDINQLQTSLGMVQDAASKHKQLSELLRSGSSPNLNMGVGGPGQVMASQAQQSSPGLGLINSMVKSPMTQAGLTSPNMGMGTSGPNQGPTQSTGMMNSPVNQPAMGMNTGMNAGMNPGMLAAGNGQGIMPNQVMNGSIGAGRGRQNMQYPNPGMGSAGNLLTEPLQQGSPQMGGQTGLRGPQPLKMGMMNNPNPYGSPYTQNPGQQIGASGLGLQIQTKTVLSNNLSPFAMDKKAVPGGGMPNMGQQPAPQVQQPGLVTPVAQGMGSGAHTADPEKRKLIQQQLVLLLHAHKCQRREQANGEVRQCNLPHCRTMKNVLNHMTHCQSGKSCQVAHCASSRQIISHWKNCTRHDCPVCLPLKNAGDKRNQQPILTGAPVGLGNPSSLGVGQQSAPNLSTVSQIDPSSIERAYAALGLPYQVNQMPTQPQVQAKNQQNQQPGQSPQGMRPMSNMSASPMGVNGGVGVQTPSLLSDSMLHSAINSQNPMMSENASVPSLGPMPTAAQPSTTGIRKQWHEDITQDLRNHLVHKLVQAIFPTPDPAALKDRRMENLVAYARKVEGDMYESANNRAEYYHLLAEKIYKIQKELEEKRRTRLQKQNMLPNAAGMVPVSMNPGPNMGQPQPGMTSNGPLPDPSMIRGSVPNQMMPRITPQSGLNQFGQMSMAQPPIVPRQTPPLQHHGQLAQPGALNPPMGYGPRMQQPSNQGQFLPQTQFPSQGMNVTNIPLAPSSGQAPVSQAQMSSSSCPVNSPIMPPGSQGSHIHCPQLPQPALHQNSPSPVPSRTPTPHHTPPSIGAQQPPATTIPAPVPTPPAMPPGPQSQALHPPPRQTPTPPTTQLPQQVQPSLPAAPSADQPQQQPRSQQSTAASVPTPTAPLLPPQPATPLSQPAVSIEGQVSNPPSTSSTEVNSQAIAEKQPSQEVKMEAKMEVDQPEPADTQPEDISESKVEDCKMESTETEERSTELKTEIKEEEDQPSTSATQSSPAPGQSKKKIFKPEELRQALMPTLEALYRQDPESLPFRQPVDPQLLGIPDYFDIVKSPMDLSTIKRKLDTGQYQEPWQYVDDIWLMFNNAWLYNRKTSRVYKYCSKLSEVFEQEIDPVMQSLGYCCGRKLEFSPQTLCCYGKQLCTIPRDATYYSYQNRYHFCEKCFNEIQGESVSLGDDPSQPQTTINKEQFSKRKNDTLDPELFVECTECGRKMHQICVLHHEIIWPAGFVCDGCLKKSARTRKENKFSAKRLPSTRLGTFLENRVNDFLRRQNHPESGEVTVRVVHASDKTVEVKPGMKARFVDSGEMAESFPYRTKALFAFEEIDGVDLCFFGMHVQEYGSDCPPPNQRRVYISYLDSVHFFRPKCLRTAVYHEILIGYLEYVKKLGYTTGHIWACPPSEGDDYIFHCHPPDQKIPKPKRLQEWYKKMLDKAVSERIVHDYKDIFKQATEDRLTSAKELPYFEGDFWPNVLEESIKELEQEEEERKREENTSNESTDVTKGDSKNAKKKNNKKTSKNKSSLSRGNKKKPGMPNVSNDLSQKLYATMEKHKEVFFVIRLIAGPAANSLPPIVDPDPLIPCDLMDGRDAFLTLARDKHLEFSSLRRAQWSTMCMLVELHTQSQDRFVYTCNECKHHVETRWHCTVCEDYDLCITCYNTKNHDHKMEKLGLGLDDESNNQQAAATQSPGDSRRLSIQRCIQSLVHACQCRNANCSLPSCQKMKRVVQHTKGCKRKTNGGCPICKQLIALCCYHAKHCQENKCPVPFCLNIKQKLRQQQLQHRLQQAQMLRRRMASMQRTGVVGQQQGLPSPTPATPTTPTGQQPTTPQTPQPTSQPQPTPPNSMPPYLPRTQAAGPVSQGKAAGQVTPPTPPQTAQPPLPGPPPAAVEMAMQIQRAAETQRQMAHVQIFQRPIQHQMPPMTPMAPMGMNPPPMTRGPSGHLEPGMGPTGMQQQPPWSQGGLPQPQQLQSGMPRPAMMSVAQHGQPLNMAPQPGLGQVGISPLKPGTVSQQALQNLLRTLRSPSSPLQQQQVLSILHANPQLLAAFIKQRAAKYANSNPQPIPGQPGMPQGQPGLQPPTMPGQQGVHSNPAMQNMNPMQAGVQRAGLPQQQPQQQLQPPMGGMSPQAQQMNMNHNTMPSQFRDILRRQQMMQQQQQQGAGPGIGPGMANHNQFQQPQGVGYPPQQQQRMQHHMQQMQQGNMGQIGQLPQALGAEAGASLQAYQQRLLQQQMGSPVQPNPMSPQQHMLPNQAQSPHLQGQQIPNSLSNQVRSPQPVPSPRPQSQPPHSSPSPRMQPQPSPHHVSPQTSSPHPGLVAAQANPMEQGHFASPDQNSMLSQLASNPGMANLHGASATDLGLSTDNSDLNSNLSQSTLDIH

Dmax (p300) [%] | DC50 (p300) [nM] | DC50 (CBP) [nM] | Dmax (CBP) [%] | Structure (SMILES)
> 80 | < 1 | 100 to 999 | < 20 | Cn1c(=O)n(C)c2ncc(-c3cccc4cc(-c5ccc(C(=O)NCC#Cc6cc7c(C8CCC(=O)NC8=O)cccc7o6)nc5)ncc34)cc21 (centres unmarked) [Example A162, 5-(8-(1,3-dimethyl-2-oxo-2,3-dihydro-1H-imidazo[4,5-b]pyridin-6-yl)isoquinolin-3-yl)-N-(3-(4-(2,6-dioxopiperidin-3-yl)benzofuran-2-yl)prop-2-yn-1-yl)picolinamide]
> 80 | < 1 | 100 to 999 | < 20 | Cc1cc2c(N3CCCc4cc(-c5ccc(C(=O)NCC#Cc6cc7c(C8CCC(=O)NC8=O)cccc7o6)nc5)nnc43)cc(C3CCOCC3)cc2n(C)c1=O (centres unmarked) [Example B138, 5-(8-(1,3-dimethyl-2-oxo-7-(tetrahydro-2H-pyran-4-yl)-1,2-dihydroquinolin-5-yl)-5,6,7,8-tetrahydropyrido[2,3-c]pyridazin-3-yl)-N-(3-(4-(2,6-dioxopiperidin-3-yl)benzofuran-2-yl)prop-2-yn-1-yl)picolinamide]
> 80 | < 1 | 100 to 999 | < 20 | COc1cc(N2CCOc3cc(-c4ccc(C(=O)NCC#Cc5ccc6occ(C7CCC(=O)NC7=O)c6c5)nc4)ncc32)c2cc(C)c(=O)n(C)c2c1 (centres unmarked) [Example B112, N-(3-(3-(2,6-dioxopiperidin-3-yl)benzofuran-5-yl)prop-2-yn-1-yl)-5-(4-(7-methoxy-1,3-dimethyl-2-oxo-1,2-dihydroquinolin-5-yl)-3,4-dihydro-2H-pyrido[4,3-b][1,4]oxazin-7-yl) picolinamide]
> 80 | < 1 | 100 to 999 | < 20 | Cn1c(=O)n(C)c2cc(N3CCCc4nc(-c5ccc(C(=O)NCC#Cc6cc7c(C8CCC(=O)NC8=O)cccc7o6)nc5)ncc43)ccc21 (centres unmarked) [Example A226, 5-(5-(1,3-dimethyl-2-oxo-2,3-dihydro-1H-benzo[d]imidazol-5-yl)-5,6,7,8-tetrahydropyrido [3,2-d]pyrimidin-2-yl)-N-(3-(4-(2,6-dioxo-piperidin-3-yl)benzofuran-2-yl)prop-2-yn-1-yl)picolinamide]
> 80 | < 1 | 100 to 999 | < 20 | Cc1cc2c(N3CCCc4nc(-c5ccc(C(=O)NCC#Cc6ccc7onc(C8CCC(=O)NC8=O)c7c6)nc5)ncc43)cc(C3CCOCC3)cc2n(C)c1=O (centres unmarked) [Example B108, 5-(5-(1,3-dimethyl-2-oxo-7-(tetrahydro-2H-pyran-4-yl)-1,2-dihydroquinolin-5-yl)-5,6,7,8-tetrahydropyrido[3,2-d]pyrimidin-2-yl)-N-(3-(3-(2,6-dioxopiperidin-3-yl)benzo[d]isoxazol-5-yl)prop-2-yn-1-yl)picolinamide]
> 80 | 1 to 9.9 | 10 to 99 | 60 to 79 | CC(C)c1cc(-c2cccc3cc(-c4ccc(C(=O)NCC#Cc5ccc6oc(=O)n(C7CCC(=O)NC7=O)c6c5)nc4)ncc23)cc2c1n(C)c(=O)n2C (centres unmarked) [Example A14, N-(3-(3-(2,6-Dioxopiperidin-3-yl)-2-oxo-2,3-dihydrobenzo[d]oxazol-5-yl)prop-2-yn-1-yl)-5-(8-(7-isopropyl-1,3-dimethyl-2-oxo-2,3-dihydro-1H-benzo[d]imidazol-5-yl)isoquinolin-3-yl)picolinamide]
> 80 | 1 to 9.9 | > 1000 | < 20 | Cc1cc2c(N3CCCc4cc(-c5ccc(C(=O)NCC#Cc6ccc7occ(C8CCC(=O)NC8=O)c7c6)nc5)nnc43)cc(C3CCOCC3)cc2n(C)c1=O (centres unmarked) [Example B64, 5-(8-(1,3-dimethyl-2-oxo-7-(tetrahydro-2H-pyran-4-yl)-1,2-dihydroquinolin-5-yl)-5,6,7,8-tetrahydropyrido[2,3-c]pyridazin-3-yl)-N-(3-(3-(2,6-dioxopiperidin-3-yl)benzofuran-5-yl)prop-2-yn-1-yl)picolinamide]
> 80 | 1 to 9.9 | > 1000 | < 20 | CC(C)c1cc(-c2cccc3cc(-c4ccc(C(=O)NCC#Cc5ccc6occ(C7CCC(=O)NC7=O)c6c5)nc4)ncc23)cc2c1n(C)c(=O)n2C (centres unmarked) [Example A23, N-(3-(3-(2,6-Dioxopiperidin-3-yl)benzofuran-5-yl)prop-2-yn-1-yl)-5-(8-(7-isopropyl-1,3-dimethyl-2-oxo-2,3-dihydro-1H-benzo[d]imidazol-5-yl)isoquinolin-3-yl)picolinamide]
60 to 79 | 10 to 99 | > 1000 | < 20 | CC(C)c1cc(N2CCOc3cc(-c4ccc(C(=O)NCC#Cc5ccc6occ(C7CCC(=O)NC7=O)c6c5)nc4)ccc32)cc2c1n(C)c(=O)n2C (centres unmarked) [Example A121, N-(3-(3-(2,6-dioxo-piperidin-3-yl)benzofuran-5-yl)prop-2-yn-1-yl)-5-(4-(7-isopropyl-1,3-dimethyl-2-oxo-2,3-dihydro-1H-benzo [d]imidazol-5-yl)-3,4-dihydro-2H-benzo [b][1,4]oxazin-7-yl)picolinamide]
60 to 79 | 1 to 9.9 | > 1000 | < 20 | Cc1cc(-c2ncc3c(n2)CCCN3c2cc(C3CCOCC3)cc3c2cc(C)c(=O)n3C)cnc1C(=O)NCC#Cc1ccc2occ(C3CCC(=O)NC3=O)c2c1 (centres unmarked) [Example B42, 5-(5-(1,3-dimethyl-2-oxo-7-(tetrahydro-2H-pyran-4-yl)-1,2-dihydroquinolin-5-yl)-5,6,7,8-tetrahydropyrido[3,2-d]pyrimidin-2-yl)-N-(3-(3-(2,6-dioxopiperidin-3-yl)benzofuran-5-yl)prop-2-yn-1-yl)-3-methylpicolinamide]
> 80 | 1 to 9.9 | > 1000 | < 20 | Cc1cc2c(-c3cccc4cc(-c5ccc(C(=O)NCC#Cc6ccc7occ(C8CCC(=O)NC8=O)c7c6)nc5)ncc34)nc(C3CCOCC3)cc2n(C)c1=O (centres unmarked) [Example B132, 5-(8-(1,3-dimethyl-2-oxo-7-(tetrahydro-2H-pyran-4-yl)-1,2-dihydro-1,6-naphthyridin-5-yl)isoquinolin-3-yl)-N-(3-(3-(2,6-dioxo-piperidin-3-yl)benzofuran-5-yl)prop-2-yn-1-yl)picolinamide]
> 80 | 1 to 9.9 | 10 to 99 | 40 to 59 | CC(C)c1cc(-c2cn(C)c(=O)c3cc(-c4ccc(C(=O)NCC#Cc5ccc6occ(C7CCC(=O)NC7=O)c6c5)nc4)ncc23)cc2c1n(C)c(=O)n2C (centres unmarked) [Example A97, N-(3-(3-(2,6-dioxo-piperidin-3-yl)benzofuran-5-yl)prop-2-yn-1-yl)-5-(8-(7-isopropyl-1,3-dimethyl-2-oxo-2,3-dihydro-1H-benzo [d]imidazol-5-yl)-6-methyl-5-oxo-5,6-dihydro-2,6-naphthyridin-3-yl) picolinamide]
> 80 | < 1 | > 1000 | < 20 | CCn1c(=O)n(C)c2c(N3CCOCC3)nc(-c3cccc4cc(-c5ccc(C(=O)NCC#Cc6cc7c(C8CCC(=O)NC8=O)cccc7o6)nc5)ncc34)cc21 (centres unmarked) [Example A260, N-(3-(4-(2,6-dioxo-piperidin-3-yl)benzofuran-2-yl)prop-2-yn-1-yl)-5-(8-(1-ethyl-3-methyl-4-morpholino-2-oxo-2,3-dihydro-1H-imidazo[4,5-c]pyridin-6-yl)isoquinolin-3-yl)picolinamide]
> 80 | < 1 | 100 to 999 | < 20 | Cc1cc(-c2ncc3c(n2)CCCN3c2cccc3c2cc(C)c(=O)n3C)cnc1C(=O)NCC#Cc1cc2c(C3CCC(=O)NC3=O)cccc2o1 (centres unmarked) [Example B153, 5-(5-(1,3-dimethyl-2-oxo-1,2-dihydroquinolin-5-yl)-5,6,7,8-tetrahydropyrido[3,2-d]pyrimidin-2-yl)-N-(3-(4-(2,6-dioxopiperidin-3-yl)benzofuran-2-yl)prop-2-yn-1-yl)-3-methylpicolinamide]
60 to 79 | 10 to 99 | 100 to 999 | 40 to 59 | CCc1cc(-c2cccc3cc(-c4ccc(C(=O)NCC#Cc5cccc(CC6CCC(=O)NC6=O)c5)nc4)ncc23)c2cc(C)c(=O)n(C)c2c1 (centres unmarked) [Example B4, N-(3-(3-((2,6-Dioxopiperidin-3-yl)methyl)phenyl)prop-2-yn-1-yl)-5-(8-(7-ethyl-1,3-dimethyl-2-oxo-1,2-dihydroquinolin-5-yl)isoquinolin-3-yl)picolinamide]
> 80 | < 1 | 100 to 999 | < 20 | COc1nc(-c2cnc(C(=O)NCC#Cc3cc4c(C5CCC(=O)NC5=O)cccc4o3)c(C)c2)ncc1Nc1cc(C2CCOCC2)c2c(c1)n(C)c(=O)n2C (centres unmarked) [Example A207, 5-(5-((1,3-dimethyl-2-oxo-7-(tetrahydro-2H-pyran-4-yl)-2,3-dihydro-1H-benzo[d]imidazol-5-yl)amino)-4-methoxypyrimidin-2-yl)-N-(3-(4-(2,6-dioxopiperidin-3-yl)benzofuran-2-yl)prop-2-yn-1-yl)-3-methylpicolinamide]
60 to 79 | 1 to 9.9 | > 1000 | < 20 | Cc1cc2c(N3CCCc4nc(-c5ccc(C(=O)NCC#Cc6ccc7occ(C8CCC(=O)NC8=O)c7c6)nc5)ncc43)nc(N3CC4(COC4)C3)cc2n(C)c1=O (centres unmarked) [Example B137, 5-(5-(1,3-dimethyl-2-oxo-7-(2-oxa-6-azaspiro[3.3]heptan-6-yl)-1,2-dihydro-1,6-naphthyridin-5-yl)-5,6,7,8-tetrahydropyrido [3,2-d]pyrimidin-2-yl)-N-(3-(3-(2,6-dioxo-piperidin-3-yl)benzofuran-5-yl)prop-2-yn-1-yl)picolinamide]
